Results from ChEMBL document CHEMBL3351565, “Cycloartane-type triterpenes from Euphorbia fischeriana stimulate human CYP3A4 promoter activity” (Bioorg Med Chem Lett, 2014).

Experiments:
Hepatocyte = test: Induction of CYP3A4 mRNA expression in human primary hepatocytes at 10 uM after 24 hrs by RT-PCR analysis
CYP3A4 = CYP3A4 (Homo sapiens, UniProt P08684); test: (§1) Induction of CYP3A4 in human HepG2 cells at 10 uM after 24 hrs by luciferase reporter gene assay in presence of hPXR relative to control; details: HepG2 cells with hPXR and CYP3A4 luciferase reporter
CYP3A4, sequence (P08684 whole entry): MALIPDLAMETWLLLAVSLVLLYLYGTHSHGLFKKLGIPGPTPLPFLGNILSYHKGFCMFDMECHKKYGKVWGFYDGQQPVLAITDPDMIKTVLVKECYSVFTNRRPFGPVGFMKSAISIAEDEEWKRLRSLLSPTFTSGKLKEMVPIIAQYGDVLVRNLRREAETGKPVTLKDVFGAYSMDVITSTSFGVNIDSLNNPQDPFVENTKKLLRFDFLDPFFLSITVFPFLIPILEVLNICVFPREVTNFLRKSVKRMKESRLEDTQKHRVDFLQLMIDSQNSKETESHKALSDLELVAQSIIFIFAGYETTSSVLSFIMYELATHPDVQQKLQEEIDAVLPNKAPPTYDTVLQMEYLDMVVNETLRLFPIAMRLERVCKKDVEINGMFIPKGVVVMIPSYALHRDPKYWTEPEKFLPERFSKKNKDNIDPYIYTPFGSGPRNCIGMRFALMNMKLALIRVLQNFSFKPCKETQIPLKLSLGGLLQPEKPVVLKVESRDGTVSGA

Cytochrome P450 3A4 = Cytochrome P450 3A4 (Homo sapiens, UniProt P08684); test: as §1; details: hepg2, 24 h, 10 µM
Cytochrome P450 3A4, sequence (P08684 whole entry): as above

## CC(C)C(=O)CC[C@@H](C)[C@H]1CC[C@@]2(C)[C@@H]3CC[C@H]4C(C)(C)[C@@H](O)CC[C@@]45C[C@@]35CC[C@]12C
Hepatocyte
  Activity: Active
CYP3A4
  fold induction at 24 h, 10 µM: 4

## CC(=O)O[C@H]1CC[C@]23C[C@]24CC[C@]2(C)[C@@H]([C@H](C)CCC(=O)C(C)C)CC[C@@]2(C)[C@@H]4CC[C@H]3C1(C)C
Cytochrome P450 3A4
  Activity: Not Active

## C=C(CC[C@@H](C)[C@H]1CC[C@@]2(C)[C@@H]3CC[C@H]4C(C)(C)[C@@H](O)CC[C@@]45C[C@@]35CC[C@]12C)C(C)(C)O
Hepatocyte
  Activity: Active
CYP3A4
  fold induction at 24 h, 10 µM: 4

## CC(=O)O[C@H]1CC[C@]2(C)C3=CC=C4[C@@H]5CC(C)(C)CC[C@]5(C)CC[C@@]4(C)[C@]3(C)CC[C@H]2C1(C)C
Cytochrome P450 3A4
  Activity: Not Active

## C=C(C)[C@@H]1CC[C@]2(C)CC[C@]3(C)[C@H](CC[C@@H]4[C@@]5(C)CC[C@@H](O)C(C)(C)[C@@H]5CC[C@]43C)[C@@H]12
Cytochrome P450 3A4
  Activity: Not Active

## CC(C)C1(CC[C@@H](C)[C@H]2CC[C@@]3(C)[C@@H]4CC[C@H]5C(C)(C)[C@@H](O)CC[C@@]56C[C@@]46CC[C@]23C)CO1 (mixture of isomers)
Cytochrome P450 3A4
  Activity: Active

## COC(CO)(CC[C@@H](C)[C@H]1CC[C@@]2(C)[C@@H]3CC[C@H]4C(C)(C)[C@@H](O)CC[C@@]45C[C@@]35CC[C@]12C)C(C)C (mixture of isomers)
Hepatocyte
  Activity: Not Active
CYP3A4
  fold induction at 24 h, 10 µM: 9.4

## C=C(C)[C@@H]1CC[C@]2(C)CC[C@]3(C)[C@H](CC[C@@H]4[C@@]5(C)CC[C@H](O)C(C)(C)[C@@H]5CC[C@]43C)[C@@H]12 [LUPEOL]
Cytochrome P450 3A4
  Activity: Not Active
